Patent US20250179057A1, “MEK IMMUNE ONCOLOGY INHIBITORS AND THERAPEUTIC USES THEREOF” (Immuneering Corporation, priority 2022, published 2025)

Columns and labels:
hERG = hERG (Homo sapiens, UniProt Q12809); experiment: in vitro; details: read-out: IC50 (μM), hERG ion channel block; Example 46; 5 min exposure per concentration
Method: Materials and Methods: CHO cells (transformed with adenovirus 5 DNA; Stably transfected with full length hERG cDNA) were cultured in Ham's F-12 supplemented with 10% fetal bovine serum, 100 U/mL penicillin G sodium, 100 μg/mL streptomycin sulfate and 400 μg/mL Zeocin. Before testing, cells in culture dishes were rinsed with Hank's Balanced Salt Solution, detached with accutase.
HEPES-buffered intracellular solution (Charles River proprietary) for whole cell recordings was loaded into the intracellular compartment of the SP384PE. Extracellular buffer (HB-PS) and Cell suspension (in HB-PS) were pipetted into the extracellular compartment of the SP384PE chip. After establishment of a whole-cell configuration, membrane currents were recorded using patch clamp amplifier in the SP384PE system.
Test article (TA) concentrations (eight (8) concentrations of each test article were evaluated) were applied to naïve cells (n=4, where n=replicates/concentration). Each application consisted of addition of 40 μL of 2× concentrated test article solution to the total 80 μL of final volume of the extracellular well of the SP384PE chip. Duration of exposure to each compound concentration was five (5) minutes.
hERG current was measured using stimulus voltage patterns with fixed amplitudes: activation pre-pulse (TP1) to +40 mV for 2 s and test pulse (TP2) to −40 mV for 2 s from a holding potential of −80 mV. hERG current was measured as the outward peak current at TP2 (tail current). The stimulation was repeated with 0.1 Hz frequency during 2 min as baseline and 5 min after TA application.
Data acquisition and analyses were performed using the SP384PE system operation software. The decrease in current amplitude after TA application was used to calculate the percent block relative to control.
Tonic Block effect was calculated as:
[formula] • where ITP2, baseline and ITP2, TA were the outward peak K^+ currents elicited by the TP2 before application and 5 min after application of a test article, respectively.
The data were corrected for run-down:
[formula] • where % VC and % PC were the mean values of the current block with the vehicle and positive controls, respectively.
Concentration-response data were fitted to an equation of the following form:
[formula] • where [Test] was the concentration of test article, IC50 was the concentration of the test article producing half-maximal block, N was the Hill coefficient, % VC was the mean current block at the vehicle control and % Block was the percentage of ion channel current inhibited at each concentration of a test article. Nonlinear least squares fits were solved with the XLfit add-in for Excel (Microsoft, Redmond, WA).
In this study, hERG Ion channel block of IC50 values were determined. […] In brief, CHO cells were cultured in Ham's F-12 supplemented with 10% fetal bovine serum, 100 U/mL penicillin G sodium, 100 μg/mL streptomycin sulfate and 400 μg/mL Zeocin. Before testing, cells in culture dishes were rinsed with Hank's Balanced Salt Solution, detached with accutase. […] Test article (TA) concentrations were applied to naïve cells (n=4, where n=replicates/concentration). Each application consisted of addition of 40 μL of 2× concentrated test article solution to the total 80 μL of final volume of the extracellular well of the SP384PE chip. Duration of exposure to each compound concentration was five (5) minutes. hERG current was measured using stimulus voltage patterns with fixed amplitudes: activation pre-pulse (TP1) to +40 mV for 2 s and test pulse (TP2) to −40 mV for 2 s from a holding potential of −80 mV. hERG current was measured as the outward peak current at TP2 (tail current). The stimulation was repeated with 0.1 Hz frequency during 2 min as baseline and 5 min after TA application. Data acquisition and analyses were performed using the SP384PE system operation software.

[1] = Mouse pharmacokinetics (oral cassette dosing), plasma; type: in vivo; details: BALB/c immunocompetent mice, 5 mg/kg p.o.
Method: Female mice (BALC/c) received a single dose (3 mice/treatment) of vehicle (10% 1N HCl:90% [20% […]) and at 0.5, 1, 2, 4, 8, 12 and 24-hour post dose humanely euthanized.
Blood was obtained through cardiac puncture into K+EDTA tubes, mixed by inversion and centrifuged to obtain the plasma. Blood will be kept on ice or at approximately 4° C. prior. Centrifugation will take place within 30 minutes of blood collection affording plasma samples. Plasma samples will be frozen as soon as possible after centrifugation and stored at −80° C. until analysis. All samples will be analysed by means of LC-MS/MS. Method development for bioanalysis will be performed by pharmacokinetics Department of Crown Bioscience (Taicang) Inc. using LC-MS/MS analysis (using Waters HSS T3 2.1×50 mm (1.8 um) LC column, and an API-4000 Electrospray MS unit). The results of a kinetic solubility (free base) study are represented in Table 19.

CYP2B6 = target: T1, CYP2B6 (Homo sapiens, UniProt P20813); experiment: CYP450 panel inhibition in human liver microsomes, 2B6 (bupropion); details: 10 μM, substrate bupropion
T1 sequence (P20813 1-491): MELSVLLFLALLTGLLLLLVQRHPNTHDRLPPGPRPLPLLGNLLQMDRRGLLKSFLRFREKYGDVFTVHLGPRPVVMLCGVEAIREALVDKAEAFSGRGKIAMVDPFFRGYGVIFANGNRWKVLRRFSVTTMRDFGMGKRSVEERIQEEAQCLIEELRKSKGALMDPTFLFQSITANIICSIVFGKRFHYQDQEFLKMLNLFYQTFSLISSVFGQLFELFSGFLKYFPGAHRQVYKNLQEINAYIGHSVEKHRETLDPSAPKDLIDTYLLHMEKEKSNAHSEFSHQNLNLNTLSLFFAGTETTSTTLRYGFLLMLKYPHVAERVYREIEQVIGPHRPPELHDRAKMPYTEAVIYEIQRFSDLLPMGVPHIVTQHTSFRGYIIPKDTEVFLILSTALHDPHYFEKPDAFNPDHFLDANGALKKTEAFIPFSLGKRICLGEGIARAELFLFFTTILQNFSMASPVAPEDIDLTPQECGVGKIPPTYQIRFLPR

CYP2D6 = CYP2D6 (Homo sapiens, UniProt P10635); experiment: CYP450 panel inhibition in human liver microsomes, 2D6 (dextromethorphan); details: 10 μM, substrate dextromethorphan
Sequence of CYP2D6 (P10635 whole entry): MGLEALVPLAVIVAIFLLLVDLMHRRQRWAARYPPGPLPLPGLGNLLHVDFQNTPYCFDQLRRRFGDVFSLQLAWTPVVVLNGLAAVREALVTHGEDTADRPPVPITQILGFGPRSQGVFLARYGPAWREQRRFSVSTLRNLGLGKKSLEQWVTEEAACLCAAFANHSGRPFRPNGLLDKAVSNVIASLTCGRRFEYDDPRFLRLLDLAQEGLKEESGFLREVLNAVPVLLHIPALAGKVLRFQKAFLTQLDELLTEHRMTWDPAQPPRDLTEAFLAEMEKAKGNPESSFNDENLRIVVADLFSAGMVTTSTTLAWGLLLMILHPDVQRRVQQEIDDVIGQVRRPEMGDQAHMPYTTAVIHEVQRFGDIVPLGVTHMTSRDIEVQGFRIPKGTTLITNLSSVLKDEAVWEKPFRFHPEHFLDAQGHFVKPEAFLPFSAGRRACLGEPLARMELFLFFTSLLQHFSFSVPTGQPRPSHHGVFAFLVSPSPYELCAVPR

Sequence of hERG (Q12809 whole entry): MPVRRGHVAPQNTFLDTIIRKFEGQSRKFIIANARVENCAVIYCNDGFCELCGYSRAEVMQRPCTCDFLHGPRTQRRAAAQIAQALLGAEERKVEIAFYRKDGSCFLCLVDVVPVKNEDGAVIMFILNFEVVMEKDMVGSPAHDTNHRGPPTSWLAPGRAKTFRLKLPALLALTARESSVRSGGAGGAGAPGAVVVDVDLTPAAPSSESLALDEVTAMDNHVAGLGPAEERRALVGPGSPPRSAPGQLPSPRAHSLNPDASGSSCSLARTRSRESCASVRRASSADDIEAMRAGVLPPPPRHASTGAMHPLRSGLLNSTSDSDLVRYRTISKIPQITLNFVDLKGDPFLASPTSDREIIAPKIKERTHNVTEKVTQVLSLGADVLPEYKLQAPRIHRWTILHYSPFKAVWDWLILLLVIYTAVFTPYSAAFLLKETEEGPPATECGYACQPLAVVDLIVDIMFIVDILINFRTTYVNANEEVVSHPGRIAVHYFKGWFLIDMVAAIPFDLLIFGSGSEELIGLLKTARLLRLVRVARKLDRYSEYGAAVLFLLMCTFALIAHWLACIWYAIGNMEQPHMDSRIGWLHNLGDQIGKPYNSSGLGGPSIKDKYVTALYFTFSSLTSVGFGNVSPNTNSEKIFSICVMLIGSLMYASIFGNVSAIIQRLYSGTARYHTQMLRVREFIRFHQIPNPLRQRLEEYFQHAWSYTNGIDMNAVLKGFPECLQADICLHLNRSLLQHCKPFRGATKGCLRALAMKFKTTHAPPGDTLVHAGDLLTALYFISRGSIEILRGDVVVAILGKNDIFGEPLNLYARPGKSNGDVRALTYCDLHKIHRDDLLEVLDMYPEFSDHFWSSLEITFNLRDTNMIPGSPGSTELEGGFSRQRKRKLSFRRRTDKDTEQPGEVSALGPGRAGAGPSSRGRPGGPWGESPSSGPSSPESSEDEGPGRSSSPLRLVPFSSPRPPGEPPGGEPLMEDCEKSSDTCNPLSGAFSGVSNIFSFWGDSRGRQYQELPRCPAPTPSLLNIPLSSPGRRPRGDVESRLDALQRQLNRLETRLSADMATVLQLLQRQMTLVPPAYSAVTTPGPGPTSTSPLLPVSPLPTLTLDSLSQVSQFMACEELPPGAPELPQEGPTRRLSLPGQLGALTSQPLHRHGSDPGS

SMILES: CNS(=O)(=O)Nc1cccc(Cc2c(CN(C)C)c3ccc(OC(=O)N(C)C)cc3oc2=O)c1F [Compound 9]
- IC50 (hERG): 22.4 µM
- AUC0-∞ [1]: 445 ng·h/mL
- AUC(0-t) [1]: 441 ng·h/mL
- Cmax [1]: 725 ng/mL
- T1/2 [1]: 66 min
- Tmax [1]: 4.98 min
- CYP-2B6 (Bupropion) mean percentage CYP inhibition (CYP2B6): −2.5%
- CYP-2D6 (Dextromethorphan) mean percentage CYP inhibition (CYP2D6): 4.4%
